We go through 4 compounds from US12729458B2, “Discovery and evolution of biologically active metabolites” (The Regents of the University of Colorado, a Body Corporate, priority 2020, dated 2026).

SMILES strings stand for the structures. Read-outs that look alike come from different tables or passages of the source.

The target of data set [1] is T1, PTP1B (PTP1B1-321) (Homo sapiens, UniProt P18031).
T1 construct: His-tag; made in house; host or cells: E. coli BL21 (DE3), pET21b
T1 sequence (P18031 1-321): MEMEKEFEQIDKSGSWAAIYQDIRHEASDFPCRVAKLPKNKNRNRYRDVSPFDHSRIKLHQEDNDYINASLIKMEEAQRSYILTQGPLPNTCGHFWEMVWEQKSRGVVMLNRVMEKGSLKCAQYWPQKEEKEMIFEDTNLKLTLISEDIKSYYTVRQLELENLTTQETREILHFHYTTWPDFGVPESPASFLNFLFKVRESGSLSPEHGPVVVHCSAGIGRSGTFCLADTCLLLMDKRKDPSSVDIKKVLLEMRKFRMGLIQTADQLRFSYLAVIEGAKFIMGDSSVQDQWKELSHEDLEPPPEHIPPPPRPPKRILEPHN
Kind of data set: PTP1B-catalyzed hydrolysis of pNPP in the presence of terpenoids (enzyme kinetics, IC50 from best-fit models). The format is biochemical, H. sapiens. As to conditions: for IC50: 15 mM pNPP, 10% DMSO; for Ki: PTP1B1-321. The procedure: Enzyme kinetics. To examine terpenoid-mediated inhibition, PTP1B-catalyzed hydrolysis of p-nitrophenyl phosphate (pNPP) was measured in the presence of various concentrations of terpenoids. Each reaction included PTP1B ([…]), pNPP (0.33, 0.67, 2, 5, 10, and 15 mM), inhibitors (110 μM, 50 μM, and 15 μM for amorphadiene; 100 μM, 50 μM, and 16.7 μM for taxadiene), and buffer (50 mM HEPES pH=7.5, 0.5 mM TCEP, 50 μg/ml BSA, 10% DMSO). The formation of p-nitrophenol was monitored by measuring absorbance at 405 nm every 10 seconds for 5 minutes on a Spectramax M2 plate reader.
Kinetic models were evaluated in three steps: (i) Initial-rate measurements collected in the absence and presence of inhibitors were fitted to Michaelis-Menten and inhibition models, respectively (here, the nlinfit and fminsearch functions from MATLAB were used). (ii) An F-test was used to compare the mixed model to the single-parameter model with the least sum squared error (here, the fcdf function from MATLAB was used to assign p-values), and the mixed model was accepted when p<0.05.
The MATLAB function “nlparci” was used to determine the confidence intervals of kinetic parameters, and those intervals were propagated to estimate corresponding confidence on IC50's.
Enzyme kinetics. To examine terpenoid-mediated inhibition, we measured PTP-catalyzed hydrolysis of p-nitrophenyl phosphate (pNPP) or 4-methylumbelliferyl phosphate (4-MUP, used when KM for pNPP was large) in the presence of various concentrations of terpenoids. Each reaction included PTP (0.05 μM PTP1B/TCPTP or 0.1 μM SHP1/SHP2 in 50 mM HEPES, 0.5 mM TCEP, 50 μg/ml BSA), pNPP (0.33, 0.67, 2, 5, 10, and 15 mM) or 4-MUP (0.13, 0.27, 0.8, 2.27, 2.93, 4.53, 7.07, and 8 mM), inhibitor (with concentrations listed in the figures), buffer (50 mM HEPES pH=7.3, 50 μg/ml BSA), and DMSO at 10% v/v. We monitored the formation of p-nitrophenol by measuring absorbance at 405 nm every 10 seconds for 5 minutes on a SpectraMax M2 plate reader and the formation of 4-methylumbelliferyl by measuring fluorescence at 450 nm (370 nm ex, 435 nm cutoff, medium gain).
We used a custom MATLAB script to process all raw kinetic data. This script removed all concentration values that fell outside of either (i) the range of our standard curve (absorbance/fluorescence vs. μM; FIG. 39) or (ii) the initial rate regime (>10% of the pNPP or 4-MUP concentration used in the assay). When this step reduced kinetic dataset to fewer than ten points, we re-measured those datasets to collect at least ten. We fit final datasets, in turn, with a linear regression model (using Matlab's backslash operator).
We evaluated kinetic models in three steps: (i) We fit initial-rate measurements collected in the absence and presence of inhibitors to Michaelis-Menten and inhibition models, respectively (here, we used the nlinfit and fminsearch functions from MATLAB; TABLE 12). (ii) We used an F-test to compare the mixed model to the single-parameter model with the least sum squared error (here, we used the fedf function from MATLAB to assign p-values), and we accepted the mixed model when p<0.05.

Data set [2] concerns insulin receptor (IR) phosphorylation (PTP1B-mediated) in HEK293T/17 cells. Briefly: ELISA of insulin receptor (IR) phosphorylation in HEK293T/17 cells. The format is cell-based. As to conditions: 3% DMSO, 10 minutes, starved HEK293T/17 cells, vs 3% DMSO control. An excerpt:
Analysis of PTP1B inhibition in HEK293TCells. We prepared HEK293T/17 cells for an enzyme-linked immunosorbent assay (ELISA) by growing them in 75 cm^2 culture flasks (Corning) with DMEM media supplemented with 10% FBS, 100 units/ml penicillin, and 100 units/ml streptomycin. We replaced the media every day for 3-5 days until the cells reached 80-100% confluency.
We measured the influence of inhibitors on insulin receptor (IR) phosphorylation by using an IR-specific ELISA (FIG. 35). Briefly, we starved cells for 48 hours in FBS-free media and incubated the with inhibitors (all at 3% DMSO) for 10 minutes. After incubation, we lysed cells with lysis buffer (9803, Cell Signaling Technology) supplemented with 1× halt phosphatase inhibitor cocktail and 1× halt protease inhibitor cocktail (Thermo Fisher Scientific) for 10 min, pelleted the cell debris, and used the lysis buffer to dilute each sample to 60 mg/ml total protein. We measured IR phosphorylation in subsequent dilutions of the 60 mg/ml samples with the PathScan® Phospho-Insulin Receptor β (panTyr) Sandwich ELISA Kit (Cell Signaling Technology; #7082).
Statistical analysis and reproducibility. We determined statistical significance (FIG. 23H) with a two-tailed Student's t-test (details in TABLE 14), and we used an F-test to compare one- and two-parameter models of inhibition (TABLE 12).
Background: ELISA stands for enzyme-linked immunosorbent assay.

The target of data set [3] is T2, PTP1B (Homo sapiens, UniProt P18031).
T2 construct: In this study, we used a well-studied truncation variant (i.e., PTP1B1-321); His-tag; made in house; host or cells: E. coli BL21 (DE3), pET21b
T2 sequence (P18031 1-321): T1 sequence (P18031 1-321)
Briefly: X-ray crystallography of PTP1B soaked with ligand. The format is binding, H. sapiens. On the procedure: X-ray crystallography. We prepared crystals of PTP1B by using hanging drop vapor diffusion. In brief, we added 2 μL of PTP1B (~600 μM PTP1B, 50 mM HEPES, pH 7.3) to 6 μL of crystallization solution (100 mM HEPES, 200 mM magnesium acetate, and 14% polyethylene glycol 8000, pH 7.5) and incubated the resulting droplets over crystallization solution for one week at 4° C. (EasyXtal CrystalSupport, Qiagen). We soaked crystals with ligand by transferring them to droplets formed with 6 μL of crystallization solution and 1 μL of ligand solution (10 mM in DMSO), which we incubated for 2-5 days at 4° C. We prepared all […] for freezing by soaking them in cryoprotectant formed from a 70/30 (v/v) mixture of buffer (100 mM HEPES, 200 mM magnesium acetate, and 25% polyethylene glycol 8000, pH 7.5) and glycerol.
We collected X-ray diffraction data through the Collaborative Crystallography Program at Lawrence Berkeley National Lab (ALS ENABLE, beamline 8.2.1, 100 K, 1.00003 Å). We performed integration, scaling, and merging of X-ray diffraction data using the xia2 software package^79, and we carried out molecular replacement and structure refinement with the PHENIX graphical interface,^80 supplemented with manual model adjustment in COOT^81 and one round of PDB-REDO^82 (the latter, only for the PTP1B-AD complex).

Setting [4] is: competitive model of inhibition, read-out: Fit par. Ki, competitive model.
Setting [5] is: mixed model, uncompetitive constant, read-out: Fit par. Ki,u, mixed model.
The mark [6] stands for this setting: noncompetitive model of inhibition, read-out: Fit par. Ki, noncompetitive model.
Where [7] appears, read: uncompetitive model of inhibition, read-out: Fit par. Ki, uncompetitive model.

`CC1=C[C@@H]2C(=C(C)CC[C@H]2C(C)C)CC1` [(+)-1 (10),4-cadinadiene]: the IC50 (usually the concentration that gives 50% inhibition) in data set [1] (Example 2, HEPES pH 7.3, ± 95% confidence interval) is 165 ± 33 µM. Also, the Ki – broadly, a dissociation constant, usually derived from enzyme kinetics or from competition with a known ligand – in data set [1] (setting [4]) was 14.8 µM; in data set [1] (mixed model, competitive constant, read-out: Fit par. Ki,c, mixed model), 5690 µM; in data set [1] (setting [5]) it was 169 µM; in data set [1] (setting [6]) it was 190 µM; in data set [1] (setting [7]), 168 µM.
As for `CC1=C[C@H]2[C@@H](CC1)[C@H](C)CC[C@H]2[C@@H](C)C(=O)O` [dihydroartemisinic acid, reference compound], the inhibition constant Ki in data set [1] (setting [4]) amounted to 178 µM; in data set [1] (setting [5]), 469 µM; in data set [1] (setting [6]), 541 µM; in data set [1] (setting [7]), 469 µM. Moreover, the “IR phosphorylation (ELISA signal)” value in data set [2] (930 μM) is recorded as “reduction in signal”; in data set [2] (930 μM, listed as DHA) it was “reduced signals”.
In the case of `CC1=CCC[C@@]2(C)CCC3=C(C)CC[C@@H](C[C@H]12)C3(C)C` [taxadiene], the IC50 in data set [1] (Example 1, HEPES pH 7.5) was found to be 119 µM. The “model (mode) of PTP1B inhibition from Michaelis-Menten fits” value in data set [1] (pNPP initial rates) is listed as “mixed inhibition”.
On to `CC(C)=CCC[C@](C)(O)[C@@H]1CC=C(C)CC1` [α-bisabolol, reference compound], for which the “solubility (crystal soaking experiments)” value in data set [3] is reported as “soluble”. Further, the Ki in data set [1] (setting [4]) came out at 178 µM; in data set [1] (setting [5]), 469 µM; in data set [1] (setting [6]), 541 µM; in data set [1] (setting [7]), 469 µM. Further, the “IR phosphorylation (ELISA signal)” value in data set [2] (405 μM) is “reduction in signal”; in data set [2] (405 μM, listed as ABOL) it was “reduced signals”.
